Reference: US20250144067A1, “PERSONALIZED STARVATION THERAPY FOR CANCER” (Faeth Therapeutics, Inc., priority 2021, published 2025)
Counter-ions that a name gives are not always drawn. Like-named read-outs stand apart in the source and are kept apart here.

Legend:
[1] = test system: NCI-H292 lung cancer cells; experiment: FDA drug screening, complete media vs cholesterol-free media without statin (TABLE 1); type: cell-based, human
[2] = test system: NCI-H292 lung cancer cells; experiment: FDA drug screening, complete media vs cholesterol-free media with simvastatin (TABLE 2); type: cell-based, human
[3] = NCI-H292 cells, cholesterol-free media without statin, FDA drug library screen
[4] = complete vs cholesterol-free media, >0 enhanced anti-cancer activity, about 0 neutral, <0 antagonist
[5] = NCI-H292 cells, drug in cholesterol-free media with simvastatin 0.04 μM
[6] = NCI-H292 cells, drug in complete media
[7] = complete media vs cholesterol-free media + simvastatin (0.04 μM), >0 enhanced anti-cancer activity, about 0 neutral, <0 antagonist
[8] = NCI-H292 cells, cholesterol-free media without statin
[9] = Complete minus Cholesterol-free, greater than 0 enhanced anti-cancer activity, about 0 neutral, below 0 antagonist
[10] = NCI-H292 cells, FDA drug library screen, cholesterol-free media without statin
[11] = NCI-H292 cells, FDA drug library screen, complete media
[12] = complete media minus cholesterol-free media + simvastatin, >0 enhanced anti-cancer activity, about 0 neutral, <0 antagonist
[13] = Complete minus Cholesterol-free, >0 enhanced anti-cancer activity, about 0 neutral, <0 antagonist
[14] = NCI-H292 cells, cholesterol-free media with simvastatin 0.04 μM, cell growth value in FDA drug screen
[15] = NCI-H292 cells, complete media, cell growth value in FDA drug screen
[16] = Complete minus Cholesterol-free, greater than 0 enhanced anti-cancer activity, about 0 neutral, below 0 antagonists
[17] = NCI-H292 cells in cholesterol-free media without statin
[18] = NCI-H292 cells in complete media
[19] = NCI-H292 cells, FDA drug library screen, cholesterol-free media with simvastatin 0.04 μM
[20] = complete vs cholesterol-free media, greater than 0 enhanced anti-cancer activity, about 0 neutral, below 0 antagonists
[21] = NCI-H292 cells, FDA library drug in cholesterol-free media with simvastatin 0.04 μM
[22] = NCI-H292 cells, FDA library drug in complete media
[23] = NCI-H292 cells, complete media, FDA drug library screen

CCn1c(=O)c2c(nc(/C=C/c3ccc(OC)c(OC)c3)n2C)n(CC)c1=O [Istradefylline]
Cholesterol-free [1, 3]: 0.9821
Difference [1, 4]: 0.19
Cholesterol-free media + simvastatin (0.04 μM) [2, 5]: 1.183
Complete Media [2, 6]: 0.9547
Difference [2, 7]: −0.23

Cl.Cl.OCCOCCN1CCN(C(c2ccccc2)c2ccccc2)CC1 [Decloxizine (dihydrochloride)]
Difference ([1]; Complete minus Cholesterol-free, […]): −0.22
Cholesterol-free [1, 8]: 1.186
Complete ([1]; NCI-H292 cells, complete media): 0.9687
Cholesterol-free media + simvastatin (0.04 μM) ([2]; NCI-H292 cells, cholesterol-free media with simvastatin 0.04 μM, […]): 0.9553
Complete Media ([2]; NCI-H292 cells, complete media, […]): 1.042
Difference ([2]; complete media minus cholesterol-free media + simvastatin, […]): 0.09

Orphenadrine (citrate)
Difference [1, 9]: −0.10
Cholesterol-free [1, 10]: 0.8697
Complete [1, 11]: 0.768
Complete Media [2, 11]: 1.525
Difference [2, 12]: 0.38

O=C(O)COCCN1CCN(C(c2ccccc2)c2ccc(Cl)cc2)CC1 (stereo not drawn) [Cetirizine (dihydrochloride)]
Difference [1, 13]: −0.28
Cholesterol-free [1, 8]: 1.185
Complete ([1]; NCI-H292 cells, complete media): 0.9092
Cholesterol-free media + simvastatin (0.04 μM) [2, 14]: 0.9045
Complete Media [2, 15]: 0.9315
Difference [2, 12]: 0.03

COC(=O)C1=C(C)NC(C)=C(C(=O)OC)C1c1ccccc1[N+](=O)[O-] [Nifedipine]
Difference [1, 16]: −0.53
Cholesterol-free [1, 17]: 1.45
Complete [1, 18]: 0.9229
Cholesterol-free media + simvastatin (0.04 μM) [2, 19]: 1.819
Complete Media [2, 11]: 1.696
Difference [2, 7]: −0.12

CC(=O)NS(=O)(=O)c1ccc(N)cc1 [Sulfacetamide]
Difference [1, 9]: −0.14
Cholesterol-free [1, 10]: 1.146
Complete [1, 11]: 1.008
Cholesterol-free media + simvastatin (0.04 μM) [2, 19]: 0.6778
Complete Media [2, 11]: 0.8793
Difference [2, 12]: 0.20

CCCCCCO[C@@H](C)c1cccc(-c2csc(NC(=O)c3cc(Cl)c(/C=C(\C)C(=O)O)c(Cl)c3)n2)c1OC [Lusutrombopag]
Difference [1, 13]: −0.26
Cholesterol-free [1, 8]: 1.148
Complete ([1]; NCI-H292 cells, complete media): 0.8829
Cholesterol-free media + simvastatin (0.04 μM) [2, 5]: 0.9436
Complete Media [2, 6]: 0.7827
Difference [2, 7]: −0.16

N#Cc1ccc2[nH]cc(CCCCN3CCN(c4ccc5oc(C(=O)O)cc5c4)CC3)c2c1 [Vilazodone carboxylic acid]
Difference [1, 13]: −0.19
Cholesterol-free [1, 8]: 0.9582
Complete ([1]; NCI-H292 cells, complete media): 0.7696
Cholesterol-free media + simvastatin (0.04 μM) ([2]; NCI-H292 cells, cholesterol-free media with simvastatin 0.04 μM, FDA drug library screen (TABLE 2)): 1.218
Complete Media ([2]; NCI-H292 cells, complete media, FDA drug library screen (TABLE 2)): 1.232
Difference ([2]; complete media minus cholesterol-free media + simvastatin (0.04 μM), >0 enhanced anti-cancer activity, about 0 neutral, <0 antagonist): 0.01

CCCCN(CCCC)CCC(O)c1cc2c(Cl)cc(Cl)cc2c2cc(C(F)(F)F)ccc12 (stereo not drawn) [Halofantrine hydrochloride]
Cholesterol-free [1, 8]: 1.176
Complete ([1]; NCI-H292 cells, complete media): 0.7446
Difference [1, 20]: −0.43
Cholesterol-free media + simvastatin (0.04 μM) [2, 21]: 1.233
Complete Media [2, 22]: 0.9282
Difference [2, 7]: −0.30

Atracurium (besylate)
Difference [1, 16]: −0.49
Cholesterol-free [1, 17]: 1.419
Complete [1, 18]: 0.9276
Cholesterol-free media + simvastatin (0.04 μM) [2, 5]: 1.369
Difference [2, 7]: −0.26

O=C(O)CSc1nnc(Br)n1-c1ccc(C2CC2)c2ccccc12 [Lesinurad (sodium)]
Cholesterol-free [1, 3]: 0.8857
Complete [1, 23]: 1.263
Difference [1, 4]: 0.38
Cholesterol-free media + simvastatin (0.04 μM) [2, 19]: 0.8519
Complete Media [2, 11]: 0.7365
Difference [2, 7]: −0.12

CC(=O)O[C@]1(C(C)=O)CC[C@H]2[C@@H]3C[C@H](C)C4=CC(=O)C=C[C@]4(C)[C@@]3(F)[C@@H](O)C[C@@]21C [Fluorometholone acetate]
Cholesterol-free [1, 8]: 0.9866
Complete ([1]; NCI-H292 cells, complete media): 0.5758
Difference [1, 20]: −0.41
Cholesterol-free media + simvastatin (0.04 μM) [2, 19]: 0.6176
Complete Media [2, 11]: 0.9441
Difference [2, 12]: 0.33

CCC(=O)O[C@@H]1CC(=O)O[C@H](C)C/C=C/C=C/[C@H](O)[C@H](C)C[C@H](CC=O)[C@H](O[C@@H]2O[C@H](C)[C@@H](O[C@H]3C[C@@](C)(O)[C@@H](OC(=O)CC)[C@H](C)O3)[C@H](N(C)C)[C@H]2O)[C@H]1OC [Midecamycin]
Cholesterol-free [1, 3]: 1.021
Complete [1, 23]: 1.536
Difference [1, 4]: 0.52
Cholesterol-free media + simvastatin (0.04 μM) [2, 21]: 1.255
Complete Media [2, 22]: 0.9149
Difference [2, 7]: −0.34

NC1=NCC2c3ccccc3Cc3ccccc3N12 (stereo not drawn) [Epinastine (hydrochloride)]
Cholesterol-free [1]: 1.415
Complete [1]: 0.8806
Difference [1]: −0.53
Cholesterol-free media + simvastatin (0.04 μM) [2]: 1.515
Complete Media [2]: 1.132
Difference [2]: −0.38

C[C@@H](NCCCc1cccc(C(F)(F)F)c1)c1cccc2ccccc12 [Cinacalcet]
Cholesterol-free [1, 3]: 0.8181
Complete [1, 23]: 1.378
Difference [1, 4]: 0.56
Cholesterol-free media + simvastatin (0.04 μM) [2, 14]: 0.8605
Complete Media [2, 15]: 0.9247
Difference [2, 12]: 0.06

COc1cc(C(=O)NCc2ccc(OCCN(C)C)cc2)cc(OC)c1OC [Trimethobenzamide hydrochloride]
Cholesterol-free [1, 3]: 0.8254
Complete [1, 23]: 0.9013
Difference [1, 4]: 0.08
Cholesterol-free media + simvastatin (0.04 μM) [2, 21]: 1.241
Complete Media [2, 22]: 0.874
Difference [2, 7]: −0.37

CCCCCCCCOc1ccccc1C(=O)Nc1ccc(C(=O)OCC[N+](C)(CC)CC)cc1.[Br-] [Otilonium (bromide)]
Cholesterol-free [1]: 1.132
Complete [1]: 0.8071
Difference [1]: −0.32
Cholesterol-free media + simvastatin (0.04 μM) [2]: 0.9764
Complete Media [2]: 1.024
Difference [2]: 0.05

Cc1ccccc1N1CCN(CCc2nnc3n2CCCC3)CC1 [Dapiprazole (hydrochloride)]
Difference [1, 16]: −0.49
Cholesterol-free [1, 17]: 1.532
Complete [1, 18]: 1.043
Cholesterol-free media + simvastatin (0.04 μM) [2, 21]: 1.337
Complete Media [2, 22]: 1.063
Difference [2, 7]: −0.27

C#C[C@]1(OC(C)=O)CC[C@H]2[C@@H]3CCC4=CC(=O)CC[C@@H]4[C@H]3CC[C@@]21C [Norethindrone acetate]
Difference [1, 9]: −0.12
Cholesterol-free [1, 10]: 1.033
Complete [1, 11]: 0.9116
Cholesterol-free media + simvastatin (0.04 μM) [2, 21]: 1.695
Complete Media [2, 22]: 0.9691
Difference [2, 7]: −0.73

CNCCCN1c2ccccc2CCc2ccccc21 [Desipramine hydrochloride]
Difference [1, 13]: −0.04
Cholesterol-free [1, 3]: 1.05
Complete [1, 23]: 1.006
Cholesterol-free media + simvastatin (0.04 μM) [2, 21]: 2.126
Complete Media [2, 22]: 1.494
Difference [2, 7]: −0.63

Cc1nc(-c2ccc(OCC(C)C)c(C#N)c2)sc1C(=O)O [Febuxostat]
Cholesterol-free [1, 3]: 0.955
Complete [1, 23]: 1.415
Difference [1, 4]: 0.46
Cholesterol-free media + simvastatin (0.04 μM) [2, 19]: 1.155
Complete Media [2, 11]: 1.036
Difference [2, 7]: −0.12

Oc1cc(O)c(Cl)cn1 [Gimeracil]
Difference [1, 13]: 0.07
Cholesterol-free [1, 3]: 0.8525
Complete [1, 23]: 0.9232
Cholesterol-free media + simvastatin (0.04 μM) [2, 21]: 2.327
Complete Media [2, 22]: 1.491
Difference [2, 7]: −0.84
